Experimental data taken from patent US9669034B2, “4-aryl-N-phenyl-1,3,5-triazin-2-amines containing a sulfoximine group” (BAYER INTELLECTUAL PROPERTY GMBH, priority 2011, dated 2017).
Where two headings read alike, the source gives them in different places.

Columns and labels:
[1] = system: Caco-2 human colorectal carcinoma; assay: Proliferation assay (crystal violet), Caco-2; assay type: cell-based; conditions: Method 3, read-out: Inhibition of Caco-2 cell proliferation, IC50
Description: (§1) Cultivated tumour cells (NCI-H460, human non-small cell lung carcinoma cells, ATCC HTB-177; DU145, hormone-independent human prostate carcinoma cells, ATCC HTB-81; HeLa-MaTu, human cervical carcinoma cells, EPO-GmbH, Berlin; HeLa-MaTu-ADR, multidrug-resistant human cervical carcinoma cells, EPO-GmbH, Berlin; HeLa human cervical tumour cells, ATCC CCL-2; Caco-2 human colorectal carcinoma, ATCC HTB-37; B16F10 mouse melanoma cells, ATCC CRL-6475) were plated at a density of 5000 cells/well (DU145, HeLa-MaTu-ADR), 3000 cells/well (NCI-H460, HeLa-MaTu, HeLa), 1500 cells/well (Caco-2), or 1000 cells/well (B16 F10) in a 96-well multititer plate in 200 μL of their respective growth medium supplemented 10% fetal calf serum. After 24 hours, the cells of one plate (zero-point plate) were stained with crystal violet (see below), while the medium of the other plates was replaced by fresh culture medium (200 μL), to which the test substances were added in various concentrations (0 M, as well as in the range of […]; the final concentration of the solvent dimethylsulfoxide was 0.5%). The cells were incubated for 4 days in the presence of test substances. Cell proliferation was determined by staining the cells with crystal violet: the cells were fixed by adding 20 μL/measuring point of an 11% glutaric aldehyde solution for 15 minutes at room temperature. After three washing cycles of the fixed cells with water, the plates were dried at room temperature. The cells were stained by adding 100 μL/measuring point of a 0.1% crystal violet solution (pH 3.0). After three washing cycles of the stained cells with water, the plates were dried at room temperature. The dye was dissolved by adding 100 μL/measuring point of a 10% acetic acid solution. The absorbance was determined by photometry at a wavelength of 595 nm. The change of cell number, in percent, was calculated by normalization of the measured values to the absorbance values of the zero-point plate (=0%) and the absorbance of the untreated (0 M) cells (=100%). The IC50 values were determined by means of a 4 parameter fit.

[2] = system: B16F10 mouse melanoma cells; assay: Proliferation assay (crystal violet), B16F10; assay type: cell-based; conditions: Method 3, read-out: Inhibition of B16F10 cell proliferation, IC50
Description: as §1

[3] = system: NCI-H460, human non-small cell lung carcinoma cells; assay: Proliferation assay (crystal violet), NCI-H460; assay type: cell-based; conditions: Method 3, read-out: Inhibition of NCI-H460 cell proliferation, IC50
Description: as §1

[4] = target: CDK9/CycT1 (Homo sapiens (Human), UniProt P50750); assay: CDK9/CycT1 kinase assay (TR-FRET); assay type: biochemical; conditions: Method 1
Sequence of CDK9/CycT1 (P50750 whole entry): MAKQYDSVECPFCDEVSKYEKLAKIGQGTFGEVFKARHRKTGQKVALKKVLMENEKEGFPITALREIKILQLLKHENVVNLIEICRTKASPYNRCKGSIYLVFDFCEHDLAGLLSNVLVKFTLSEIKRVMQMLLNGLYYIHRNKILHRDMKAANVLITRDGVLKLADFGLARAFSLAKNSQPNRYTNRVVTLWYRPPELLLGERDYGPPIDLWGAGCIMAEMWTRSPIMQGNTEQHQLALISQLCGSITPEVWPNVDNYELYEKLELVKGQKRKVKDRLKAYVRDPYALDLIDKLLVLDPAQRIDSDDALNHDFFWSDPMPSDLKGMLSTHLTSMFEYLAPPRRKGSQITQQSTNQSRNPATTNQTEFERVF
Sequence of CDK9/CycT1 (O60563 whole entry partner): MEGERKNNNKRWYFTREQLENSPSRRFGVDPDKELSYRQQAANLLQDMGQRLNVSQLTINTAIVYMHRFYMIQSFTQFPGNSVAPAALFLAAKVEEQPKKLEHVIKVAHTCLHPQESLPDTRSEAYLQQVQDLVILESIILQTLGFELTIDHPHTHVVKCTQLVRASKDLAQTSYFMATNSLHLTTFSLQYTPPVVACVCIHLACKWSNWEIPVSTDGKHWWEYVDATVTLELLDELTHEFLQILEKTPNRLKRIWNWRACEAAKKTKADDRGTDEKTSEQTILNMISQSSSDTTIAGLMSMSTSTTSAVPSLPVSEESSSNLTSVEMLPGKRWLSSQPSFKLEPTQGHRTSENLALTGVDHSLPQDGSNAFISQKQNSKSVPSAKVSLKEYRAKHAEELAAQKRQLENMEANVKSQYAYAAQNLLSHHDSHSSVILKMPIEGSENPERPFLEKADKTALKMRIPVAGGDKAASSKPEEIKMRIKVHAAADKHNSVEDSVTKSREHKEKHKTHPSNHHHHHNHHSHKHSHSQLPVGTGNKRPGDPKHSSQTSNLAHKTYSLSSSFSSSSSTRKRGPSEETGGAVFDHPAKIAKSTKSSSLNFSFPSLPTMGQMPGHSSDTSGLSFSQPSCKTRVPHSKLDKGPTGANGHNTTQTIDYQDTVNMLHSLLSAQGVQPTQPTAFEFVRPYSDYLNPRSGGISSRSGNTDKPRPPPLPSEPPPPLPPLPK
Description: 1. CDK9/CycT1 Kinase Assay:
CDK9/CycT1—inhibitory activity of compounds of the present invention was quantified employing the CDK9/CycT1 TR-FRET assay as described in the following paragraphs:
Recombinant full-length His-tagged human CDK9 and CycT1, expressed in insect cells and purified by Ni-NTA affinity chromatography, were purchased from Invitrogen (Cat. No PV4131). As substrate for the kinase reaction biotinylated peptide biotin-Ttds-[…]

[5] = system: HeLa-MaTu-ADR, multidrug-resistant human cervical carcinoma cells; assay: Proliferation assay (crystal violet), HeLa-MaTu-ADR; assay type: cell-based; conditions: Method 3, read-out: Inhibition of HeLa/MaTu/ADR cell proliferation, IC50
Description: as §1

[6] = system: DU145, hormone-independent human prostate carcinoma cells; assay: Proliferation assay (crystal violet), DU145; assay type: cell-based; conditions: Method 3, read-out: Inhibition of DU145 cell proliferation, IC50
Description: as §1

[7] = system: HeLa human cervical tumour cells; assay: Proliferation assay (crystal violet), HeLa; assay type: cell-based; conditions: Method 3, read-out: Inhibition of HeLa cell proliferation, IC50
Description: as §1

[8] = target: CDK2/CycE (Homo sapiens (Human), UniProt P24941); assay: CDK2/CycE kinase assay (TR-FRET); assay type: biochemical; conditions: Method 2
Description: 2. CDK2/CycE Kinase Assay:
CDK2/CycE—inhibitory activity of compounds of the present invention was quantified employing the CDK2/CycE TR-FRET assay as described in the following paragraphs:
Recombinant fusion proteins of GST and human CDK2 and of GST and human CycE, expressed in insect cells (Sf9) and purified by Glutathion-Sepharose affinity chromatography, were purchased from ProQinase GmbH (Freiburg, Germany). As substrate for the kinase reaction biotinylated peptide biotin-Ttds-[…]

[9] = Homo sapiens, Caco-2, Caco-2 cells
[10] = Mus musculus, B16-F10, B16F10 cells
[11] = Homo sapiens, NCI-H460, NCI-H460 cells
[12] = Homo sapiens, DU-145, DU145 cells

Row | SMILES | IC50 [1, 9] | IC50 [2, 10] | IC50 [3, 11] | IC50 [4] | IC50 ([5]; Homo sapiens, HeLa) | IC50 [6, 12] | IC50 ([7]; Homo sapiens, HeLa) | IC50 [8] | IC50 ([1]; Caco-2 cells) | IC50 ([2]; B16F10 cells) | IC50 ([3]; NCI-H460 cells) | IC50 [5] | IC50 ([6]; DU145 cells) | IC50 [7]
1 | CCOC(=O)N=S(C)(=O)Cc1cccc(Nc2ncnc(-c3cccc4c3OCCO4)n2)c1 (racemic) [Example 37, (rac)-Ethyl [(3-{[4-(2,3-dihydro-1,4-benzodioxin-5-yl)-1,3,5-triazin-2-yl]amino}benzyl)(methyl)oxido-λ^6-sulfanylidene]carbamate] | 810 nM | 720 nM | 920 nM | 9 nM | 750 nM | 500 nM | 630 nM | 2300 nM | – | – | – | – | – | –
2 | C#CCOc1cc(F)ccc1-c1ncnc(Nc2cccc(CS(C)(=N)=O)c2)n1 (single isomer, unassigned) [Example 78, 4-[4-Fluoro-2-(prop-2-yn-1-yloxy)phenyl]-N-{3-[(S-methylsulfonimidoyl)methyl]phenyl}-1,3,5-triazin-2-amine] | 760 nM | 500 nM | 390 nM | 9 nM | 260 nM | 370 nM | 650 nM | 580 nM | – | – | – | – | – | –
3 | CCS(=O)(Cc1cccc(Nc2ncnc(-c3ccc(F)cc3OC)n2)c1)=NC#N (racemic) [Example 107, (rac)-[Ethyl(3-{[4-(4-fluoro-2-methoxyphenyl)-1,3,5-triazin-2-yl]amino}benzyl)oxido-λ^6-sulfanylidene]cyanamide] | 500 nM | 300 nM | 450 nM | 4 nM | 340 nM | 280 nM | 230 nM | 360 nM | – | – | – | – | – | –
4 | COc1cc(F)ccc1-c1ncnc(Nc2cc(Cl)cc(CS(C)(=N)=O)c2)n1 (racemic) [Example 64, (rac)-N-{3-Chloro-5-[(S-methylsulfonimidoyl)methyl]phenyl}-4-(4-fluoro-2-methoxyphenyl)-1,3,5-triazin-2-amine] | 350 nM | 320 nM | 360 nM | 15 nM | 280 nM | 290 nM | 400 nM | 250 nM | – | – | – | – | – | –
5 | CS(=N)(=O)Cc1cccc(Nc2ncnc(-c3ccc(F)cc3OCC3CCCCC3)n2)c1 (racemic) [Example 55, (rac)-4-[2-(Cyclohexylmethoxy)-4-fluorophenyl]-N-{3-[(S-methylsulfonimidoyl)methyl]phenyl}-1,3,5-triazin-2-amine] | 890 nM | – | 980 nM | 10 nM | 850 nM | 990 nM | 1000 nM | 2200 nM | – | – | – | – | – | –
6 | COc1cc(F)ccc1-c1ncnc(Nc2cc(F)cc(CS(C)(=N)=O)c2)n1 (racemic) [Example 52, (rac)-4-(4-Fluoro-2-methoxyphenyl)-N-{3-fluoro-5-[(S-methylsulfonimidoyl)methyl]phenyl}-1,3,5-triazin-2-amine] | 690 nM | 550 nM | 650 nM | – | 140 nM | 340 nM | 410 nM | 1000 nM | – | – | – | – | – | –
7 | CS(=N)(=O)Cc1cccc(Nc2ncnc(-c3ccc(F)cc3OCc3cncs3)n2)c1 (racemic) [Example 81, (rac)-4-[4-Fluoro-2-(1,3-thiazol-5-ylmethoxy)phenyl]-N-{3-[(S-methylsulfonimidoyl)methyl]phenyl}-1,3,5-triazin-2-amine] | – | – | – | 23 nM | – | – | 860 nM | 1500 nM | – | – | – | – | – | –
8 | CS(=N)(=O)Cc1cccc(Nc2ncnc(-c3ccc(F)cc3OCCC3CC3)n2)c1 (racemic) [Example 76, (rac)-4-[2-(2-Cyclopropylethoxy)-4-fluorophenyl]-N-{3-[(S-methylsulfonimidoyl)methyl]phenyl}-1,3,5-triazin-2-amine] | – | – | – | 30 nM | – | – | 1100 nM | 3200 nM | – | – | – | – | – | –

Results, then the compound that gave them:

Row | IC50 [1, 9] | IC50 [2, 10] | IC50 [3, 11] | IC50 [4] | IC50 ([5]; Homo sapiens, HeLa) | IC50 [6, 12] | IC50 ([7]; Homo sapiens, HeLa) | IC50 [8] | IC50 ([1]; Caco-2 cells) | IC50 ([2]; B16F10 cells) | IC50 ([3]; NCI-H460 cells) | IC50 [5] | IC50 ([6]; DU145 cells) | IC50 [7] | SMILES
9 | – | – | – | 5 nM | – | – | – | 440 nM | 390 nM | 370 nM | 420 nM | 350 nM | 380 nM | 440 nM | C#CCOc1cc(F)ccc1-c1ncnc(Nc2cccc(CS(C)(=N)=O)c2)n1 (single isomer, unassigned) [Example 79, 4-[4-Fluoro-2-(prop-2-yn-1-yloxy)phenyl]-N-{3-[(S-methylsulfonimidoyl)methyl]phenyl}-1,3,5-triazin-2-amine]
10 | 800 nM | 1000 nM | 980 nM | 8 nM | 960 nM | 900 nM | – | 690 nM | – | – | – | – | – | – | CCOC(=O)N=S(C)(=O)Cc1cccc(Nc2ncnc(-c3cc(F)c(F)cc3OC)n2)c1 (racemic) [Example 9, (rac)-Ethyl [(3-{[4-(4,5-difluoro-2-methoxyphenyl)-1,3,5-triazin-2-yl]amino}benzyl)(methyl)oxido-λ^6-sulfanylidene]carbamate]
11 | 210 nM | 220 nM | 180 nM | 2 nM | 640 nM | 180 nM | 110 nM | 270 nM | – | – | – | – | – | – | CS(=N)(=O)Cc1cccc(Nc2ncnc(-c3ccc(F)cc3OCc3ccnc(F)c3)n2)c1 (single isomer, unassigned) [Example 83, 4-{4-Fluoro-2-[(2-fluoropyridin-4-yl)methoxy]phenyl}-N-{3-[(S-methylsulfonimidoyl)methyl]phenyl}-1,3,5-triazin-2-amine]
12 | 290 nM | 340 nM | 230 nM | – | 240 nM | 240 nM | 300 nM | 430 nM | – | – | – | – | – | – | CCOC(=O)N=S(C)(=O)Cc1cc(F)cc(Nc2ncnc(-c3ccc(F)cc3OC)n2)c1 (racemic) [Example 51, (rac)-Ethyl [(3-fluoro-5-{[4-(4-fluoro-2-methoxyphenyl)-1,3,5-triazin-2-yl]amino}benzyl)(methyl)oxido-λ^6-sulfanylidene]carbamate]
13 | – | – | – | 3 nM | – | – | 940 nM | 200 nM | – | – | – | – | – | – | CS(=N)(=O)Cc1cccc(Nc2ncnc(-c3ccc(F)cc3OCc3ccc(F)c(Cl)c3)n2)c1 (racemic) [Example 97, (rac)-4-{2-[(3-Chloro-4-fluorobenzyl)oxy]-4-fluorophenyl}-N-{3-[(S-methylsulfonimidoyl)methyl]phenyl}-1,3,5-triazin-2-amine]
14 | – | – | – | 20 nM | – | – | 1000 nM | 1800 nM | – | – | – | – | – | – | COc1cc(F)ccc1-c1ncnc(Nc2cccc(CS(C)(=O)=NS(C)(=O)=O)c2)n1 (racemic) [Example 44, (rac)-N-[(3-{[4-(4-Fluoro-2-methoxyphenyl)-1,3,5-triazin-2-yl]amino}benzyl)(methyl)oxido-λ^6-sulfanylidene]methanesulfonamide]
